# Data published in patent US11123337B2, “4-methylsulfonyl-substituted piperidine urea compounds” (MYOKARDIA, INC., priority 2015, dated 2021).
# Target: bovine cardiac myosin (Bos taurus, UniProt Q9BE39)
# Assay: Myosin activation assay (PK/LDH-coupled ATPase, bovine cardiac myofibrils)
# Assay type: biochemical
# Details: AC20 = concentration at which total response is increased by twenty percent
# Outline: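 Skinned bovine cardiac myofibrils (1 mg/mL) in PIPES/MgCl2 buffer pH 6.8 at free Ca2+ giving ~50% (pCa ~6) or <5% (pCa 10) activation, with 50 μM ATP and 3.3% DMSO. ATPase rate from NADH absorbance at 340 nm (PK/LDH coupling) over 15 min at ambient temperature. AC20/AC50 from a four-parameter fit of DMSO-normalised rates.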
# Chain of bovine cardiac myosin (Q9BE39 whole entry): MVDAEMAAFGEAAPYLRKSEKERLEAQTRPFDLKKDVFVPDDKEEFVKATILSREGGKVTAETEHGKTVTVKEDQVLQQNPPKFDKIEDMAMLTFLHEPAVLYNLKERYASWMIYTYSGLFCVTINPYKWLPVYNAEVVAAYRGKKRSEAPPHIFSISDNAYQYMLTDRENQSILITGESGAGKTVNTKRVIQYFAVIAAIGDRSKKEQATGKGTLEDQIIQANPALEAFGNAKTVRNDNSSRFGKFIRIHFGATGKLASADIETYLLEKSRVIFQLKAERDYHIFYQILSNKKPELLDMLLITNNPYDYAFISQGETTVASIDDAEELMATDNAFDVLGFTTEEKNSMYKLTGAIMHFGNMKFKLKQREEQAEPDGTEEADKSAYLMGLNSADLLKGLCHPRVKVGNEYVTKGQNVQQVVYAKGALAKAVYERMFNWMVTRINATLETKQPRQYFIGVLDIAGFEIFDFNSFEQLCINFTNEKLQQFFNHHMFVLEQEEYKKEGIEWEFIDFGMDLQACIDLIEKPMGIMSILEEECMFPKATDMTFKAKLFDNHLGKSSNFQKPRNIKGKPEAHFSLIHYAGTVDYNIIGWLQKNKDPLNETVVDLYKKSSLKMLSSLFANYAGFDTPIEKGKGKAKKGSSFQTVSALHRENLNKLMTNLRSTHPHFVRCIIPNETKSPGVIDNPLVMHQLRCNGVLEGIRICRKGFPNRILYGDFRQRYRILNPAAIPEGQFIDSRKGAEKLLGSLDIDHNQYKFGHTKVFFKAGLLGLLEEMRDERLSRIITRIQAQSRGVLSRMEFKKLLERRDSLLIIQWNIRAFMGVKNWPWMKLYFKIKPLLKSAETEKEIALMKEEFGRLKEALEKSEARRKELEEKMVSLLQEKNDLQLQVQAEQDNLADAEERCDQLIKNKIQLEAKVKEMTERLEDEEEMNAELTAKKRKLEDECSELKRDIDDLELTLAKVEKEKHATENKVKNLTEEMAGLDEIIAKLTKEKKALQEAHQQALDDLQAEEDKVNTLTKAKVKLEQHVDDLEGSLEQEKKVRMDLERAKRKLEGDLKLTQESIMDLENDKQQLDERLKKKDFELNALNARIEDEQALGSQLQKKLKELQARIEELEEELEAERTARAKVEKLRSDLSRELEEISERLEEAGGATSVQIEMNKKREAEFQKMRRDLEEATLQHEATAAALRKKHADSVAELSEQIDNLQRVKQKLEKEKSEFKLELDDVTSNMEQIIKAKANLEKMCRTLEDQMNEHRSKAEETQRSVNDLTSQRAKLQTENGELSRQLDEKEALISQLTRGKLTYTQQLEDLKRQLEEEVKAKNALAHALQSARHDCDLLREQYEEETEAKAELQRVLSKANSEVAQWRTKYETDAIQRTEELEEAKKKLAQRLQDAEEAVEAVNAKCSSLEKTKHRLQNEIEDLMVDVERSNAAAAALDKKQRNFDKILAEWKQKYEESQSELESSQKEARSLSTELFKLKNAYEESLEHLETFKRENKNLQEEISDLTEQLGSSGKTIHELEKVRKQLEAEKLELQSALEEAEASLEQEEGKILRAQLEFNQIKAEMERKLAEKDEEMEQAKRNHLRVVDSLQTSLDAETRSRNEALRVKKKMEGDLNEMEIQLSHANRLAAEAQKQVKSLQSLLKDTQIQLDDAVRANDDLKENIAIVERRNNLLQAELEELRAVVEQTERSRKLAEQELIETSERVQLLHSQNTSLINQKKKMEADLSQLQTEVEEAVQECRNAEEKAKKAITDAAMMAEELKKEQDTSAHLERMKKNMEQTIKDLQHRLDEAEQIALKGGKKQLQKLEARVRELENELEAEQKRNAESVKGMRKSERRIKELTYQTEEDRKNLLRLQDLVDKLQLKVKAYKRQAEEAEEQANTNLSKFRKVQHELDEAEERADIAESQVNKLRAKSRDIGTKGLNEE
# Chain of bovine cardiac myosin (P85100 whole entry partner): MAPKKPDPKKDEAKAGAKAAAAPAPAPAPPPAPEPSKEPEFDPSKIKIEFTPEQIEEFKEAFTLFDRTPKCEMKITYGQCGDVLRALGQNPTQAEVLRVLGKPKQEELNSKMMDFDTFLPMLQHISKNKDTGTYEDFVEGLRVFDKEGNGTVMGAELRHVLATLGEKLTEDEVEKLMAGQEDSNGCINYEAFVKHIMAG
# Chain of bovine cardiac myosin (Q3SZE5 whole entry partner): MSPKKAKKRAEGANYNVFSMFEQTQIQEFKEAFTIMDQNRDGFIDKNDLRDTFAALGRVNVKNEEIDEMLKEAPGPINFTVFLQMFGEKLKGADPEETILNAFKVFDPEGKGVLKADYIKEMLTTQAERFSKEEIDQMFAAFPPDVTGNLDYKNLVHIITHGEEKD
row,SMILES,Myosin Activation (AC20)
1,"Cn1nccc1NC(=O)N1CCC(C(C)(C)S(=O)(=O)c2cccc(F)c2)CC1 [Compound 136, 4-(2-((3-fluorophenyl)sulfonyl)propan-2-yl)-N-(1-methyl-1H-pyrazol-5-yl)piperidine-1-carboxamide]",+ (+ represents myosin activation value AC20 > 5 μM)
2,"Cn1nc(C(F)(F)F)cc1S(=O)(=O)C(C)(C)C1CCN(C(=O)Nc2ccnnc2)CC1 [Compound 137, 4-(2-((1-methyl-3-(trifluoromethyl)-1H-pyrazol-5-yl)sulfonyl)propan-2-yl)-N-(pyridazin-4-yl)piperidine-1-carboxamide]",+++ (+++ represents myosin activation value AC20 < 2 μM)
3,"Cn1ccc(NC(=O)N2CCC(C(C)(C)S(=O)(=O)c3cccc(F)c3)CC2)n1 [Compound 138, 4-(2-((3-fluorophenyl)sulfonyl)propan-2-yl)-N-(1-methyl-1H-pyrazol-3-yl)piperidine-1-carboxamide]",+ (+ represents myosin activation value AC20 > 5 μM)
4,"Cn1cc(NC(=O)N2CCC(C(C)(C)S(=O)(=O)c3cccc(F)c3)CC2)cn1 [Compound 139, 4-(2-((3-fluorophenyl)sulfonyl)propan-2-yl)-N-(1-methyl-1H-pyrazol-4-yl)piperidine-1-carboxamide]",+ (+ represents myosin activation value AC20 > 5 μM)
5,"Cn1nc(Cl)cc1S(=O)(=O)C(C)(C)C1CCN(C(=O)Nc2ccnnc2)CC1 [Compound 140, 4-(2-((3-chloro-1-methyl-1H-pyrazol-5-yl)sulfonyl)propan-2-yl)-N-(pyridazin-4-yl)piperidine-1-carboxamide]",+++ (+++ represents myosin activation value AC20 < 2 μM)
6,"Cc1ncc(NC(=O)N2CCC(C(C)(C)S(=O)(=O)c3cccc(F)c3)CC2)cn1 [Compound 141, 4-(2-((3-fluorophenyl)sulfonyl)propan-2-yl)-N-(2-methylpyrimidin-5-yl)piperidine-1-carboxamide]",+ (+ represents myosin activation value AC20 > 5 μM)
7,"Cc1cc(NC(=O)N2CCC(C(C)(C)S(=O)(=O)c3cccc(F)c3)CC2)no1 [Compound 142, 4-(2-((3-fluorophenyl)sulfonyl)propan-2-yl)-N-(5-methylisoxazol-3-yl)piperidine-1-carboxamide]",+ (+ represents myosin activation value AC20 > 5 μM)
8,"Cc1ncc(NC(=O)N2CCC(C(C)(C)S(=O)(=O)c3cn(C)nc3C(F)F)CC2)cn1 [Compound 143, 4-(2-((3-(difluoromethyl)-1-methyl-1H-pyrazol-4-yl)sulfonyl)propan-2-yl)-N-(2-methylpyrimidin-5-yl)piperidine-1-carboxamide]",+ (+ represents myosin activation value AC20 > 5 μM)
9,"Cc1cc(NC(=O)N2CCC(C(C)(C)S(=O)(=O)c3cn(C)nc3C(F)F)CC2)no1 [Compound 144, 4-(2-((3-(difluoromethyl)-1-methyl-1H-pyrazol-4-yl)sulfonyl)propan-2-yl)-N-(5-methylisoxazol-3-yl)piperidine-1-carboxamide]",+ (+ represents myosin activation value AC20 > 5 μM)
10,"Cn1cc(S(=O)(=O)C(C)(C)C2CCN(C(=O)Nc3nnco3)CC2)c(C(F)F)n1 [Compound 145, 4-(2-((3-(difluoromethyl)-1-methyl-1H-pyrazol-4-yl)sulfonyl)propan-2-yl)-N-(1,3,4-oxadiazol-2-yl)piperidine-1-carboxamide]",+ (+ represents myosin activation value AC20 > 5 μM)
11,"CC(C)(C1CCN(C(=O)Nc2cn[nH]c2)CC1)S(=O)(=O)c1cccc(F)c1 [Compound 146, 4-(2-((3-fluorophenyl)sulfonyl)propan-2-yl)-N-(1H-pyrazol-4-yl)piperidine-1-carboxamide]",++ (++ represents myosin activation value AC20 from 2 μM-5 μM)
12,"CC(C)(C1CCN(C(=O)Nc2cc[nH]n2)CC1)S(=O)(=O)c1cccc(F)c1 [Compound 147, 4-(2-((3-fluorophenyl)sulfonyl)propan-2-yl)-N-(1H-pyrazol-3-yl)piperidine-1-carboxamide]",+ (+ represents myosin activation value AC20 > 5 μM)
13,"Cn1cncc1S(=O)(=O)C(C)(C)C1CCN(C(=O)Nc2ccnnc2)CC1 [Compound 148, 4-(2-((1-methyl-1H-imidazol-5-yl)sulfonyl)propan-2-yl)-N-(pyridazin-4-yl)piperidine-1-carboxamide]",+ (+ represents myosin activation value AC20 > 5 μM)
14,"CC(C)(C1CCN(C(=O)Nc2ccnc(F)c2)CC1)S(=O)(=O)c1cccc(F)c1 [Compound 151, 4-(2-((3-fluorophenyl)sulfonyl)propan-2-yl)-N-(2-fluoropyridin-4-yl)piperidine-1-carboxamide]",++ (++ represents myosin activation value AC20 from 2 μM-5 μM)
15,"CC(C)(C1CCN(C(=O)Nc2ccc(F)nc2)CC1)S(=O)(=O)c1cccc(F)c1 [Compound 152, 4-(2-((3-fluorophenyl)sulfonyl)propan-2-yl)-N-(6-fluoropyridin-3-yl)piperidine-1-carboxamide]",++ (++ represents myosin activation value AC20 from 2 μM-5 μM)
16,"CC(C)(C1CCN(C(=O)Nc2nnco2)CC1)S(=O)(=O)c1cccc(F)c1 [Compound 153, 4-(2-((3-fluorophenyl)sulfonyl)propan-2-yl)-N-(1,3,4-oxadiazol-2-yl)piperidine-1-carboxamide]",+ (+ represents myosin activation value AC20 > 5 μM)
17,"Cc1cc(NC(=O)N2CCC(C(C)(C)S(=O)(=O)c3cn(C)nc3C(F)F)CC2)cnn1 [Compound 154, 4-(2-((3-(difluoromethyl)-1-methyl-1H-pyrazol-4-yl)sulfonyl)propan-2-yl)-N-(6-methylpyridazin-4-yl)piperidine-1-carboxamide]",+ (+ represents myosin activation value AC20 > 5 μM)
18,"Cc1ccc(NC(=O)N2CCC(C(C)(C)S(=O)(=O)c3cn(C)nc3C(F)F)CC2)cn1 [Compound 155, 4-(2-((3-(difluoromethyl)-1-methyl-1H-pyrazol-4-yl)sulfonyl)propan-2-yl)-N-(6-methylpyridin-3-yl)piperidine-1-carboxamide]",++ (++ represents myosin activation value AC20 from 2 μM-5 μM)
19,"CC(C)(C1CCN(C(=O)Nc2nccs2)CC1)S(=O)(=O)c1cccc(F)c1 [Compound 156, 4-(2-((3-fluorophenyl)sulfonyl)propan-2-yl)-N-(thiazol-2-yl)piperidine-1-carboxamide]",+ (+ represents myosin activation value AC20 > 5 μM)
20,"Cn1cc(S(=O)(=O)C(C)(C)C2CCN(C(=O)Nc3cnoc3)CC2)c(C(F)F)n1 [Compound 157, 4-(2-((3-(difluoromethyl)-1-methyl-1H-pyrazol-4-yl)sulfonyl)propan-2-yl)-N-(isoxazol-4-yl)piperidine-1-carboxamide]",+++ (+++ represents myosin activation value AC20 < 2 μM)
21,"CC(C)(C1CCN(C(=O)Nc2cnoc2)CC1)S(=O)(=O)c1cccc(F)c1 [Compound 158, 4-(2-((3-fluorophenyl)sulfonyl)propan-2-yl)-N-(isoxazol-4-yl)piperidine-1-carboxamide]",+++ (+++ represents myosin activation value AC20 < 2 μM)
22,"CC(C)(C1CCN(C(=O)Nc2ccc(Cl)nc2)CC1)S(=O)(=O)c1cccc(F)c1 [Compound 159, N-(6-chloropyridin-3-yl)-4-(2-((3-fluorophenyl)sulfonyl)propan-2-yl)piperidine-1-carboxamide]",++ (++ represents myosin activation value AC20 from 2 μM-5 μM)
23,"CC(C)(C1CCN(C(=O)Nc2ccnc(Cl)c2)CC1)S(=O)(=O)c1cccc(F)c1 [Compound 160, N-(2-chloropyridin-4-yl)-4-(2-((3-fluorophenyl)sulfonyl)propan-2-yl)piperidine-1-carboxamide]",++ (++ represents myosin activation value AC20 from 2 μM-5 μM)
24,"COc1ccc(NC(=O)N2CCC(C(C)(C)S(=O)(=O)c3cccc(F)c3)CC2)cn1 [Compound 161, 4-(2-((3-fluorophenyl)sulfonyl)propan-2-yl)-N-(6-methoxypyridin-3-yl)piperidine-1-carboxamide]",+ (+ represents myosin activation value AC20 > 5 μM)
25,"Cc1ccc(NC(=O)N2CCC(C(C)(C)S(=O)(=O)c3cccc(F)c3)CC2)cn1 [Compound 162, 4-(2-((3-fluorophenyl)sulfonyl)propan-2-yl)-N-(6-methylpyridin-3-yl)piperidine-1-carboxamide]",+ (+ represents myosin activation value AC20 > 5 μM)
26,"CC(C)(C1(O)CCN(C(=O)Nc2ccnnc2)CC1)S(=O)(=O)c1cccc(F)c1 [Compound 163, 4-(2-((3-fluorophenyl)sulfonyl)propan-2-yl)-4-hydroxy-N-(pyridazin-4-yl)piperidine-1-carboxamide]",+ (+ represents myosin activation value AC20 > 5 μM)
27,"N#Cc1ccc(S(=O)(=O)C2(C3CCN(C(=O)Nc4ccnnc4)CC3)CCC2)cc1 [Compound 164, 4-(1-((4-cyanophenyl)sulfonyl)cyclobutyl)-N-(pyridazin-4-yl)piperidine-1-carboxamide]",+++ (+++ represents myosin activation value AC20 < 2 μM)
28,"O=C(Nc1ccnnc1)N1CCC(C2(S(=O)(=O)c3ccc(C(F)(F)F)cc3)CCC2)CC1 [Compound 165, N-(pyridazin-4-yl)-4-(1-((4-(trifluoromethyl)phenyl)sulfonyl)cyclobutyl)piperidine-1-carboxamide]",+++ (+++ represents myosin activation value AC20 < 2 μM)
